Measurements reported in US10647713B2 (Nimbus Lakshmi, Inc., priority 2016, dated 2020).

molecular target: human TYK2 (JH2domain-pseudokinase) (Homo sapiens (Human), UniProt P29597); assay: TYK2 JH2 Domain Binding Assay (KINOMEscan, DiscoveRx); details: 11-point dilution, duplicate
Procedure, shortened: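 Kd from duplicate 11-point 3-fold dilutions starting at 30,000 nM, fitted by Hill equation with slope fixed at −1. Compounds (final 0.9% DMSO) displace DNA-tagged HEK293-expressed TYK2 JH2 fusion (<0.1 nM) from ligand-coated beads over 1 h at room temperature; eluted kinase read by qPCR.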

human TYK2 (JH2domain-pseudokinase), sequence (P29597 556-888): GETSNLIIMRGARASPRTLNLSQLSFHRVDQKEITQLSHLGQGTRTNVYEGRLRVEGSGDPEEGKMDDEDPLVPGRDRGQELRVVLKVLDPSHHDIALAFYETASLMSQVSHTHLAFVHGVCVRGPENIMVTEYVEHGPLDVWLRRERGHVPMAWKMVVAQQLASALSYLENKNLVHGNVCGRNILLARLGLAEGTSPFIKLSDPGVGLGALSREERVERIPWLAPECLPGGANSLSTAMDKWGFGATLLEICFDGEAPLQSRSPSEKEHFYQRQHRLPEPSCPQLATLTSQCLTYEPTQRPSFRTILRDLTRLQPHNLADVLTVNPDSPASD

Kd [nM] | Compound
> 10 | CC1(C)CSC(c2ccc(Nc3cc(NC(=O)[C@@H]4CC4(F)F)nc4[nH]c(C(F)F)nc34)c(S(C)(=O)=O)c2)=N1 [I-483, (S)—N-(2-(difluoromethyl)-7-((4-(4,4-dimethyl-4,5-dihydrothiazol-2-yl)-2-(methylsulfonyl)phenyl)amino)-3H-imidazo[4,5-b]pyridin-5-yl)-2,2-difluorocyclopropane-1-carboxamide]
> 10 | CC1(C)CC(c2ccc(Nc3cc(NC(=O)C4CC4)nc4[nH]c(C(F)F)nc34)c(S(C)(=O)=O)c2)CC(C)(C)O1 [I-399]
< 0.1 | Cc1cc(-c2ccc(Nc3cc(NC(=O)C4CC4)nc4[nH]c(C(F)F)nc34)c(S(C)(=O)=O)c2)nn1C [I-216, N-(2-(difluoromethyl)-7-((4-(1,5-dimethyl-1H-pyrazol-3-yl)-2-(methylsulfonyl)phenyl)amino)-3H-imidazo[4,5-b]pyridin-5-yl)cyclopropanecarboxamide]
0.5 to 1 | Cc1nc2c(Nc3ccc(-c4cn(C)cn4)cc3S(C)(=O)=O)cc(NC(=O)C3CC3(F)F)nc2[nH]1 (stereo not shown) [I-378, N-(7-((4-(1l2-imidazol-4-yl)-2-(methylsulfonyl)phenyl)amino)-2-methyl-3H-imidazo[4,5-b]pyridin-5-yl)-2,2-difluorocyclopropane-1-carboxamide]
> 10 | CS(=O)(=O)c1cc(C2CCC2)ccc1Nc1cc(NC(=O)C2CC2(F)F)nc2[nH]c(C(F)F)nc12 (stereo not shown) [I-358, N-(7-((4-cyclobutyl-2-(methylsulfonyl)phenyl)amino)-2-(difluoromethyl)-3H-imidazo[4,5-b]pyridin-5-yl)-2,2-difluorocyclopropane-1-carboxamide]
0.5 to 1 | Cc1cnc(-c2ccc(Nc3cc(Nc4cccc(C#N)n4)nc4[nH]c(C(F)F)nc34)c(S(C)(=O)=O)c2)s1 [I-513, 6-((2-(difluoromethyl)-7-((2-(methylsulfonyl)-4-(5-methylthiazol-2-yl)phenyl)amino)-3H-imidazo[4,5-b]pyridin-5-yl)amino)picolinonitrile]
> 10 | CCS(=O)(=O)N(C)c1ccccc1Nc1cc(Nc2cccc(C#N)n2)nc2[nH]c(C(F)F)nc12 [I-190, N-(2-((5-((6-cyanopyridin-2-yl)amino)-2-(difluoromethyl)-3H-imidazo[4,5-b]pyridin-7-yl)amino)phenyl)-N-methylethanesulfonamide]
0.1 to 0.5 | Cc1nc2c(Nc3ccc(-c4c(C)nn(C)c4C)cc3S(C)(=O)=O)cc(Nc3cccc(C#N)n3)nc2[nH]1 [I-355]
0.1 to 0.5 | Cc1cc(Nc2cc(Nc3ccc(C4=NC(C)(C)CS4)cc3S(C)(=O)=O)c3nc(C)[nH]c3n2)nc(C)n1 [I-564, N7-(4-(4,4-dimethyl-4,5-dihydrothiazol-2-yl)-2-(methylsulfonyl)phenyl)-N5-(2,6-dimethylpyrimidin-4-yl)-2-methyl-3H-imidazo[4,5-b]pyridine-5,7-diamine]
0.5 to 1 | Cc1nc2c(Nc3ccc(Cl)cc3N(C)S(C)(=O)=O)cc(Nc3cnc(C)c(C)n3)nc2[nH]1 [I-130, N-(5-chloro-2-((5-((5,6-dimethylpyrazin-2-yl)amino)-2-methyl-3H-imidazo[4,5-b]pyridin-7-yl)amino)phenyl)-N-methylmethanesulfonamide]
0.5 to 1 | COc1c(Nc2cc(NC(=O)[C@@H]3C[C@@H]3F)nc3[nH]c(C)nc23)cccc1-c1ncn(C)n1 [I-266, (1S,2S)-2-fluoro-N-(7-((2-methoxy-3-(1-methyl-1H-1,2,4-triazol-3-yl)phenyl)amino)-2-methyl-3H-imidazo[4,5-b]pyridin-5-yl)cyclopropane-1-carboxamide]
0.1 to 0.5 | CN=[S@](C)(=O)c1cc(-c2nc(COC)c(C)s2)ccc1Nc1cc(NC(=O)C2CC2)nc2[nH]c(C(F)F)nc12 [I-650]
1 to 10 | CC1(C)COC(c2ccc(Nc3cc(NC(=O)[C@H]4C[C@H]4F)nc4[nH]c(C(F)F)nc34)c(S(C)(=O)=O)c2)=N1 [I-471, (1R,2R)—N-(2-(difluoromethyl)-7-((4-(4,4-dimethyl-4,5-dihydrooxazol-2-yl)-2-(methylsulfonyl)phenyl)amino)-3H-imidazo[4,5-b]pyridin-5-yl)-2-fluorocyclopropane-1-carboxamide]
1 to 10 | COc1c(Nc2cc(Nc3ccc(N4CC(O)C4)cn3)nc3[nH]c(C(F)F)nc23)cccc1-c1nnn(C)n1 [I-23, I-(6-((2-(difluoromethyl)-7-((2-methoxy-3-(2-methyl-2H-tetrazol-5-yl)phenyl)amino)-3H-imidazo[4,5-b]pyridin-5-yl)amino)pyridin-3-yl)azetidin-3-ol]
0.1 to 0.5 | CS(=O)(=O)c1cc(C2CC2)ccc1Nc1cc(Nc2cc3n(n2)CCCCC3)nc2[nH]c(C(F)F)nc12 [I-409, N7-(4-cyclopropyl-2-(methylsulfonyl)phenyl)-2-(difluoromethyl)-N5-(5,6,7,8-tetrahydro-4H-pyrazolo[1,5-a]azepin-2-yl)-3H-imidazo[4,5-b]pyridine-5,7-diamine]
0.1 to 0.5 | Cc1nc2c(Nc3ccc(C4CC4)cc3S(C)(=O)=O)cc(Nc3cc4n(n3)CCCCC4)nc2[nH]1 [I-410, N7-(4-cyclopropyl-2-(methylsulfonyl)phenyl)-2-methyl-N5-(5,6,7,8-tetrahydro-4H-pyrazolo[1,5-a]azepin-2-yl)-3H-imidazo[4,5-b]pyridine-5,7-diamine]
0.5 to 1 | Cc1nc2c(Nc3ccc(C4CCC4)cc3S(C)(=O)=O)cc(NC(=O)[C@H]3C[C@H]3F)nc2[nH]1 [I-413, (1R,2R)—N-(7-((4-cyclobutyl-2-(methylsulfonyl)phenyl)amino)-2-methyl-3H-imidazo[4,5-b]pyridin-5-yl)-2-fluorocyclopropane-1-carboxamide]
0.1 to 0.5 | COCc1ccc(Nc2cc(NC(=O)C3CC3)nc3[nH]c(C)nc23)c(S(C)(=O)=O)c1 [I-223, N-(7-((4-(methoxymethyl)-2-(methylsulfonyl)phenyl)amino)-2-methyl-3H-imidazo[4,5-b]pyridin-5-yl)cyclopropanecarboxamide]
> 10 | COc1ccccc1Nc1cc(NC(=O)C2CC2)nc2[nH]c(C(F)F)nc12 [I-28, N-(2-(difluoromethyl)-7-((2-methoxyphenyl)amino)-3H-imidazo[4,5-b]pyridin-5-yl)cyclopropanecarboxamide]
1 to 10 | Cn1cnc(-c2ccc(Nc3cc(NC(=O)[C@@H]4CC4(F)F)nc4[nH]c(C(F)F)nc34)c(S(C)(=O)=O)c2)c1 [I-245, (S)—N-(2-(difluoromethyl)-7-((4-(1-methyl-1H-imidazol-4-yl)-2-(methylsulfonyl)phenyl)amino)-3H-imidazo[4,5-b]pyridin-5-yl)-2,2-difluorocyclopropane-1-carboxamide]
< 0.1 | CS(=O)(=O)c1ccccc1Nc1cc(Nc2ccc(OC3CCOCC3)c(C#N)n2)nc2[nH]c(C(F)F)nc12 [I-623, 6-((2-(difluoromethyl)-7-((2-(methylsulfonyl)phenyl)amino)-3H-imidazo[4,5-b]pyridin-5-yl)amino)-3-((tetrahydro-2H-pyran-4-yl)oxy)picolinonitrile]
1 to 10 | CS(=O)(=O)c1cc(C2CCOCC2)ccc1Nc1cc(NC(=O)[C@@H]2CC2(F)F)nc2[nH]c(C(F)F)nc12 [I-293, (S)—N-(2-(difluoromethyl)-7-((2-(methylsulfonyl)-4-(tetrahydro-2H-pyran-4-yl)phenyl)amino)-3H-imidazo[4,5-b]pyridin-5-yl)-2,2-difluorocyclopropane-1-carboxamide]
0.1 to 0.5 | Cc1c(-c2ccc(Nc3cc(Nc4ccc(C(C)C)c(C#N)n4)nc4[nH]c(C(F)F)nc34)c(S(C)(=O)=O)c2)cnn1C [I-533]
> 10 | COc1cc(Nc2ccc(-c3ccn(C)n3)cc2S(C)(=O)=O)c2nc(C)[nH]c2n1 [I-383, 5-methoxy-2-methyl-N-(4-(1-methyl-1H-pyrazol-3-yl)-2-(methylsulfonyl)phenyl)-3H-imidazo[4,5-b]pyridin-7-amine]
0.1 to 0.5 | Cc1nc2c(Nc3ccc(F)cc3S(C)(=O)=O)cc(Nc3ccc4c(n3)CCOC4)nc2[nH]1 [I-644]
0.5 to 1 | COc1c(Nc2cc(NC(=O)C3CC3)nc3[nH]c(C)nc23)cccc1-c1nnn(C)n1 [I-98, N-(7-((2-methoxy-3-(2-methyl-2H-tetrazol-5-yl)phenyl)amino)-2-methyl-3H-imidazo[4,5-b]pyridin-5-yl)cyclopropanecarboxamide]

Compound | Kd [nM]
Cc1nc2c(Nc3ccc(-c4cnn(C5CC5)c4C)cc3S(C)(=O)=O)cc(NC(=O)C3CC3)nc2[nH]1 [I-562, N-(7-((4-(1-cyclopropyl-5-methyl-1H-pyrazol-4-yl)-2-(methylsulfonyl)phenyl)amino)-2-methyl-3H-imidazo[4,5-b]pyridin-5-yl)cyclopropanecarboxamide] | < 0.1
Cc1nc2c(Nc3ccc([C@H]4CCC(F)(F)CO4)cc3S(C)(=O)=O)cc(NC(=O)C3CC3)nc2[nH]1 [I-615, (R)—N-(7-((4-(5,5-difluorotetrahydro-2H-pyran-2-yl)-2-(methylsulfonyl)phenyl)amino)-2-methyl-3H-imidazo[4,5-b]pyridin-5-yl)cyclopropanecarboxamide] | 0.5 to 1
COCc1ccc(Nc2cc(NC(=O)C3CC3)nc3[nH]c(C(F)F)nc23)c(N(C)S(C)(=O)=O)c1 [I-96, N-(2-(difluoromethyl)-7-((4-(methoxymethyl)-2-(N-methylmethylsulfonamido)phenyl)amino)-3H-imidazo[4,5-b]pyridin-5-yl)cyclopropanecarboxamide] | 0.1 to 0.5
Cc1cc(Nc2cc(Nc3ccc(-c4nc(C)c(C)s4)cc3S(C)(=O)=O)c3nc(C)[nH]c3n2)nc(C)n1 [I-470, N5-(2,6-dimethylpyrimidin-4-yl)-N7-(4-(4,5-dimethylthiazol-2-yl)-2-(methylsulfonyl)phenyl)-2-methyl-3H-imidazo[4,5-b]pyridine-5,7-diamine] | 0.1 to 0.5
CS(=O)(=O)c1cc(Cl)ccc1Nc1cc(NC(=O)C2CC2)nc2[nH]c(C(F)F)nc12 [I-58, N-(7-((4-chloro-2-(methylsulfonyl)phenyl)amino)-2-(difluoromethyl)-3H-imidazo[4,5-b]pyridin-5-yl)cyclopropanecarboxamide] | 0.5 to 1
